Read-outs that look alike come from different tables or passages of the source.
How the values were obtained:
[1] = In vivo pharmacokinetic study, plasma and brain levels by LC-MS; design: species or system mice; details: male, C57BL/6, mouse, in vivo, ip
Protocol: The compounds pharmacokinetic properties were examined in vivo by administering the compounds intraperitoneally (i.p.) at 1 mg/kg in mice, and determining plasma and brain levels over 8 h by LC-MS measurements.
The pharmacokinetic study was performed by Pharmacelsus (Saarbrücken, Germany). In total 27 male C57BL/6 mice (8 weeks old, 23-31 g body weight, purchased from Janvier Labs, France) were used. The animals were housed in a temperature-controlled room (20-24° C.) and maintained in a 12 h light/dark cycle. Food and water were available ad libitum. All experimental procedures were approved by and conducted in accordance with the regulations of the local Animal Welfare authorities (Landesamt für Gesundheit und Verbraucherschutz, Abteilung Lebensmittel-und Veterinärwesen, Saarbrücken).
The animals were divided into 3 groups (9 mice/group) and a cassette dosing was performed, in which the mice received a single dose of 1 mg/kg body weight of 3-4 compounds (dissolved in 0.9% NaCl containing 20% cyclodextrine) i.p. simultaneously. From each animal 2 blood samples were collected from the retrobulbar venous plexus under short isoflurane anesthesia (at 0.25 h and 0.5 h from 3 mice; at 1 h and 2 h from 3 mice; and at 4 h and 8 h from 3 mice). Li-heparin was used as anticoagulant. Plasma samples were obtained by centrifugation for 10 min at 3000× g and 4° C. Immediately after the last blood sample the animal was sacrificed by cervical dislocation and the brain was removed and frozen in liquid nitrogen. Plasma and brain samples were stored at −80° C. until LC-MS analysis.
For all other compounds, the HPLC system consisted of a U-HPLC pump (Accela) and an AS Open auto sampler (Thermo Fisher Scientific, USA), and mass spectrometry was performed on a Q Exactive (Orbitrap) accurate mass spectrometer equipped with a heated electrospray (H-ESI) interface (Thermo Fisher Scientific, USA) connected to a PC running the standard software Chromeleon 7.2. For all compounds, the HPLC pump flow rate was set to 600 μl/min and the compounds were separated on an analytical column with a suitable pre-column. The pharmacokinetic analysis was performed applying a non-compartment model using the Kinetica 5.0 software (Thermo Scientific, Waltham, USA). All given parameters were obtained by trapezoid area calculation.

[2] = tested on: 44 targets; assay: SafetyScreen44 panel (Eurofins), whole panel; assay type: binding, mostly human; details: 10 μM, out of 44 targets
Protocol: (§1) Compound enzyme inhibition effect was calculated as a % inhibition of control enzyme activity. […] Measurements were performed in duplicate.

[3] = molecular target: T1, alpha-1A adrenergic receptor (α1A) (Homo sapiens, UniProt P35348); assay: SafetyScreen44 binding; details: 10 μM; substantial = higher than 50%
T1 construct: Eurofins SafetyScreen44
T1 sequence (P35348 whole entry): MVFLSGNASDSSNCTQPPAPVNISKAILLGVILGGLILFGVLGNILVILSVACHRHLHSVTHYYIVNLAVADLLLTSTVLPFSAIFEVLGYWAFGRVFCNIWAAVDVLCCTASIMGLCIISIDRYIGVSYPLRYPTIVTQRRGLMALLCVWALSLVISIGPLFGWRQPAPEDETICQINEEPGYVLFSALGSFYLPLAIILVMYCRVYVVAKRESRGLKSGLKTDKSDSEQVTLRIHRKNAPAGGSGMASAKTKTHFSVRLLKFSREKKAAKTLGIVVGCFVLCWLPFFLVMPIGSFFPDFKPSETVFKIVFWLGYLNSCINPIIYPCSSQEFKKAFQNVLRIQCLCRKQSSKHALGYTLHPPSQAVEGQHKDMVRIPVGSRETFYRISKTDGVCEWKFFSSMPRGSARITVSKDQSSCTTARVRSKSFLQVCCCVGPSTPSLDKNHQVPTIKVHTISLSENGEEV
Protocol: as §1

[4] = molecular target: T2, dopamine receptor D1 (D1) (Homo sapiens, UniProt P21728); assay: SafetyScreen44 binding; details: 10 μM; substantial = higher than 50%
T2 construct: Eurofins SafetyScreen44
T2 sequence (P21728 whole entry): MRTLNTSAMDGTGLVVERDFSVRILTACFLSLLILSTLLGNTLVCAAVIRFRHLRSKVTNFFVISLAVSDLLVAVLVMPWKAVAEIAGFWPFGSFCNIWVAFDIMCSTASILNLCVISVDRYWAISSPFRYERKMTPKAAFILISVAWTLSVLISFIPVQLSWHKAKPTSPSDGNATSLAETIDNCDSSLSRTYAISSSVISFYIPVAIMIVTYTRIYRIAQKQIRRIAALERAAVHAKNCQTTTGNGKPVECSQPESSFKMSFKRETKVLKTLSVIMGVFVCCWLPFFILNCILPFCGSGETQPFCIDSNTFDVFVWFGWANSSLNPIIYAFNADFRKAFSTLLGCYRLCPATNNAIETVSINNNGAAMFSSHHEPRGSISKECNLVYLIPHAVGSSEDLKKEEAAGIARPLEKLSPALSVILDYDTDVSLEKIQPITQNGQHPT
Protocol: as §1

[5] = molecular target: T3, histamine H1 receptor (H1) (Homo sapiens, UniProt P35367); assay: SafetyScreen44 binding; details: 10 μM; substantial = higher than 50%
T3 construct: Eurofins SafetyScreen44
T3 sequence (P35367 whole entry): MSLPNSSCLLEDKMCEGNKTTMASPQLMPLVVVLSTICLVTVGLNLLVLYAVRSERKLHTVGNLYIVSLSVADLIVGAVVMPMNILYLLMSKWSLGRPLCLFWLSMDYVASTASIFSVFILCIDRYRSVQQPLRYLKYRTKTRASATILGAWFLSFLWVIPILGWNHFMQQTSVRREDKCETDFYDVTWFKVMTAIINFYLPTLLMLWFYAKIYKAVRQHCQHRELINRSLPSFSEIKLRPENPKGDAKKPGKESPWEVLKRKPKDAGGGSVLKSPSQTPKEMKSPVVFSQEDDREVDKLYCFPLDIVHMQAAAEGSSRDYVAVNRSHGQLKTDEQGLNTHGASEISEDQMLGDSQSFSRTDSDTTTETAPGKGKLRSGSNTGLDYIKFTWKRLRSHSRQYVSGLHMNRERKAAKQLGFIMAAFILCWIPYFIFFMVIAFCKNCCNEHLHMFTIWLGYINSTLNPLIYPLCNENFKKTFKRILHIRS
Protocol: as §1

[6] = molecular target: T4, human ether-à-go-go (hERG) potassium channel (Homo sapiens, UniProt Q12809); assay: SafetyScreen44 binding; details: 10 μM
T4 construct: Eurofins SafetyScreen44
T4 sequence (Q12809 whole entry): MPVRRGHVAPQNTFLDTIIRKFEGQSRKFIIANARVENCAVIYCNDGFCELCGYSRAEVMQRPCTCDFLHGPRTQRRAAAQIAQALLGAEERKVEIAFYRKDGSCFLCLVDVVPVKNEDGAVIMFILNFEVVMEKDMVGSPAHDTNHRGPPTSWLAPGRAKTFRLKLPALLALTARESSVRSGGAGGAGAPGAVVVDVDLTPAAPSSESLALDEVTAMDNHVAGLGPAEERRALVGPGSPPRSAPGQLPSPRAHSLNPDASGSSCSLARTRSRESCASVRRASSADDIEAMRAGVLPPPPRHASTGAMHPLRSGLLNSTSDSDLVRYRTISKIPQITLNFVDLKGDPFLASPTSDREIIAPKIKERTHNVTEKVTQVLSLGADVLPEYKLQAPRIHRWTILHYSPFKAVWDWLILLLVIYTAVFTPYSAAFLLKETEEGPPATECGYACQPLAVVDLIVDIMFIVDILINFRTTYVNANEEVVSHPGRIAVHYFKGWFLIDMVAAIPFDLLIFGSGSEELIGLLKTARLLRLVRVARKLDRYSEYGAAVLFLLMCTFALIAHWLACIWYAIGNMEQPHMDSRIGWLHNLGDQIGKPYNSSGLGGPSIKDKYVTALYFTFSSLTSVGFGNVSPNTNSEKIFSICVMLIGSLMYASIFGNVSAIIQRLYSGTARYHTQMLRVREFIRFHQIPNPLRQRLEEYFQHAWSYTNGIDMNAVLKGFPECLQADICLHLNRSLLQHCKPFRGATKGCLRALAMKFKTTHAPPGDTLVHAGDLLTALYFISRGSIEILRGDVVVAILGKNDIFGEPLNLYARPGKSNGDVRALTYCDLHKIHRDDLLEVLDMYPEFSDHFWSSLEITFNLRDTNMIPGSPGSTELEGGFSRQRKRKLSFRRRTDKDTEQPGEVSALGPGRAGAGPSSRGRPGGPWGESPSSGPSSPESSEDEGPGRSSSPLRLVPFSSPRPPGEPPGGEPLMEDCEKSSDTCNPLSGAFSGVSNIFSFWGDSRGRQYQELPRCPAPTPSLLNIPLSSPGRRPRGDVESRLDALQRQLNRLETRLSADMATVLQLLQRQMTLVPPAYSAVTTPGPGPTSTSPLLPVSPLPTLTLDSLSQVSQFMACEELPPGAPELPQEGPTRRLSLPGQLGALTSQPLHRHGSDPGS
Protocol: as §1

[7] = molecular target: T5, serotonin 5-HT2A receptor (Homo sapiens, UniProt P28223); assay: SafetyScreen44 binding; details: 10 μM; substantial = higher than 50%
T5 construct: Eurofins SafetyScreen44
T5 sequence (P28223 whole entry): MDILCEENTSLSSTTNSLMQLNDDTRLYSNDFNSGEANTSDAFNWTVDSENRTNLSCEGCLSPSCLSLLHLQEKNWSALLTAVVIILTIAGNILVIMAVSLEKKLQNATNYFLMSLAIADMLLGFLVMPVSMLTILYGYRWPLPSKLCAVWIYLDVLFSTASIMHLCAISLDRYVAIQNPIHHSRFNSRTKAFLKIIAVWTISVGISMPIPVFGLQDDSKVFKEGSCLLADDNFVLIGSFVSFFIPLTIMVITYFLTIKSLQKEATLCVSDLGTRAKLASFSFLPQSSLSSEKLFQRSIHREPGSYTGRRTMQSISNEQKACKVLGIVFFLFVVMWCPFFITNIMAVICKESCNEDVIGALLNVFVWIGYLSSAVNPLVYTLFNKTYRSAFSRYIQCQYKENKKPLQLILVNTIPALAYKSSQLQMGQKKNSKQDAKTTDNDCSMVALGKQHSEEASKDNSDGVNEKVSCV
Protocol: as §1

[8] = molecular target: T6, serotonin 5-HT2B receptor (Homo sapiens, UniProt P41595); assay: SafetyScreen44 binding; details: 10 μM; substantial = higher than 50%
T6 construct: Eurofins SafetyScreen44
T6 sequence (P41595 whole entry): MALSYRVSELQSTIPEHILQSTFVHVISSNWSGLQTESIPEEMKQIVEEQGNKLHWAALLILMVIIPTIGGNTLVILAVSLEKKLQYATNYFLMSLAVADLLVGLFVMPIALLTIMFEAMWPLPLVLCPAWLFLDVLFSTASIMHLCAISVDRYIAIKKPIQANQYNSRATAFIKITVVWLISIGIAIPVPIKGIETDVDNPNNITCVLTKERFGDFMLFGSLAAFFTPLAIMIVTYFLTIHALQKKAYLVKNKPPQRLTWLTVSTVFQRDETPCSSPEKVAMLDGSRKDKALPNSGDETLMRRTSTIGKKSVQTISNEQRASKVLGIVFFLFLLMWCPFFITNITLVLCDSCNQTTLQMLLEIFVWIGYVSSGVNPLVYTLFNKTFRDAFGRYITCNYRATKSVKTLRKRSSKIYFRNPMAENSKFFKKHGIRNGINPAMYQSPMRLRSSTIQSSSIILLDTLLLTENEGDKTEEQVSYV
Protocol: as §1

[9] = molecular target: T7, serotonin transporter (SET) (Homo sapiens, UniProt P31645); assay: SafetyScreen44 binding; details: 10 μM; substantial = higher than 50%
T7 construct: Eurofins SafetyScreen44
T7 sequence (P31645 whole entry): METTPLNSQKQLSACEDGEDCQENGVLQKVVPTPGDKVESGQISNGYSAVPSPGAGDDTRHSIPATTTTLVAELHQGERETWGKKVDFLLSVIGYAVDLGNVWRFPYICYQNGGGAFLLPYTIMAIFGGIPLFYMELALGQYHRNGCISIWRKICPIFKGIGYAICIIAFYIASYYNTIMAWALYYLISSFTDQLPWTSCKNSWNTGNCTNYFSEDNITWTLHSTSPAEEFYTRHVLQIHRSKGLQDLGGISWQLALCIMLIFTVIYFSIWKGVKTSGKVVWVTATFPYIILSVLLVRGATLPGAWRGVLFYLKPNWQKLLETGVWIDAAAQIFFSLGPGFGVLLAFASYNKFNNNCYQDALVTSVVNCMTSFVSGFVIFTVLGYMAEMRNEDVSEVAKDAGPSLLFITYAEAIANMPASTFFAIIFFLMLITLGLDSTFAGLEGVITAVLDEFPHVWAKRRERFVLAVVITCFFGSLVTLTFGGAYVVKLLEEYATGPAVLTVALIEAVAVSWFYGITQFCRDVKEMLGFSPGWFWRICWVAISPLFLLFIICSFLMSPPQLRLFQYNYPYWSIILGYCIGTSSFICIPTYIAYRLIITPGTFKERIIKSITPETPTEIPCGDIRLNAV

[10] = tested on: voltage-gated (KV) potassium channel; assay: SafetyScreen44 binding; design: species or system rat; details: 10 μM
Protocol: as §1

[11] = tested on: motor function of mice; assay: Accelerating rotarod test (motor function); assay type: in vivo; design: motor function in the accelerating rotarod test: dose or concentration left out as unconfirmed; details: 15 min after administration
Protocol: (§2) Further studies were conducted to assess the in vivo efficacy of Compound 6 and Compound 10 in mice. In detail, experiments were performed in 8 to 16 weeks old C57BL/6N mice (Charles River, Sulzfeld, Germany) and animals with a genetic deletion of Slack (Slack^−/− mice^27) of either sex. Animals were housed on a 12 h light/dark cycle with access to food and water ad libitum. All experiments adhered to the guidelines of the International Association for the Study of Pain and to the ARRIVE (Animal Research: Reporting on In Vivo Experiments) guidelines, and were approved by and conducted in accordance with the regulations of the local Animal Welfare authorities (Regierungspräsidium Darmstadt, Germany). All behavioral studies were conducted during the light cycle of the day at room temperature (20-24° C.) by an observer blinded for the treatment of the animals and/or their genotype.
(§3) Accelerating rotarod and vertical pole test were performed as follows: Mice were placed on a rotarod treadmill (Ugo Basile, Italy) with increasing speed (4-40 rpm over 300 s), and were trained for 4-5 consecutive days. Only mice reaching the 300 seconds without falling off were included in the experiment. On the testing day, compounds were i.p. administered in a vehicle composed of 0.9% saline (Sigma-Aldrich) containing 10% 2-hydroxypropyl-β-cyclodextrine (ITW Reagents) and after 15 min the latency to fall off the accelerating rotarod was measured. Immediately thereafter, mice were placed head-upward on the top of a vertical pole with a rough surface (diameter 1 cm, height 40 cm) and the time until animals reached the ground was recorded (cut-off time 20 s). Means out of three trials for each time point were calculated for further analysis.

[12] = tested on: motor function of mice; assay: Vertical pole test (motor function); assay type: in vivo; details: 3-30 mg i.p., after rotarod test
Protocol: as §2, §3

[13] = tested on: chloroquine-induced scratching behavior of mice; assay: Chloroquine-induced acute itch (scratching) model, systemic treatment; assay type: in vivo; details: for chloroquine-induced scratching behavior: WT mice, 3, 10 or 30 mg/kg i.p. 15 min prior to s.c. chloroquine
Protocol: as §2
Acute itch behavior of the mice was monitored using a histamine-based, chloroquine-based and SLIGRL-based acute itch behavior model. In these models, three to four days before the experiment day, the fur on the dorsolateral aspect of the neck was shaved under brief isoflurane anesthesia. On the testing day, mice were habituated for 30 min in separate plexiglass cylinders (30 cm diameter). Compounds were dissolved in 0.9% saline containing 10% 2-hydroxypropyl-β-cyclodextrine and i.p. administered in a volume of maximal 200 μL. 15 min thereafter, the pruritogens chloroquine (200 μg), SLIGRL (100 μg) or histamine (800 μg), all dissolved in 0.9% saline (20 μL), were injected subcutaneously into the nape of the neck. Numbers of scratching bouts directed to the nape of the neck were assessed over 30 min by videotaping.

| SMILES | number of targets with substantial binding inhibition (higher than 50%) [2] | binding inhibition, D1 [4] | binding inhibition, H1 [5] | binding to hERG potassium channel in the off-target screen [6] | binding inhibition, 5-HT2A [7] | binding inhibition, 5-HT2B [8] | binding to voltage-gated (KV) potassium channel in the off-target screen [10] | motor function in the accelerating rotarod test [11] | motor function in the vertical pole test [12] | chloroquine-induced scratching behavior [13] | other results |
| --- | --- | --- | --- | --- | --- | --- | --- | --- | --- | --- | --- |
| O=C(O)COCCN1CCN(C2=Nc3ccccc3Oc3ccc(Cl)cc32)CC1 [Compound 6, 2-(2-(4-(2-Chlorodibenzo[b,f][1,4]oxazepin-11-yl)piperazin-1-yl)ethoxy) acetic acid] | 8 | substantial binding | substantial binding | did not measurably bind | substantial binding | substantial binding | did not measurably bind | did neither impair the motor function | did neither impair the motor function | ameliorate the scratching behavior in a dose-dependent manner | % AUCextra ([1]; 1 mg/kg): 10.1%; AUC(0-inf) ([1]; 1 mg/kg): 467 ng·h/mL; AUC(0-t) ([1]; 1 mg/kg): 420 ng·h/mL; CL/F ([1]; 1 mg/kg): 35.7 mL/min/kg; Cmax ([1]; 1 mg/kg): 240 ng/mL; Cz ([1]; 1 mg/kg): 13.3 ng/mL; Tmax ([1]; 1 mg/kg): 0.25 h; Vd/F ([1]; 1 mg/kg): 7.56 L/kg; half-life ([1]; 1 mg/kg): 2.4 h; tz ([1]; 1 mg/kg): 8 h; Kp ([1]; mice, 1 mg/kg i.p., read-out: brain/plasma ratio): ≤ 0.3; binding inhibition, α1A [3]: substantial binding; binding inhibition, SET [9]: substantial binding; chloroquine-induced scratching in Slack−/− mice ([13]; Slack−/− mice, 10 mg/kg): did not significantly alter; antipruritic effect after pretreatment with Slack inhibitor Compound 31 ([13]; WT mice, Compound 31 30 mg/kg i.p. 5 min prior to Compound 6 30 mg/kg i.p.): partly antagonized |
| O=c1nc(CN2CCN(C3=Nc4ccccc4Oc4ccc(Cl)cc43)CC2)[nH][nH]1 [Compound 10, 5-((4-(2-Chlorodibenzo[b,f][1,4]oxazepin-11-yl)piperazin-1-yl)methyl)-1,2-dihydro-3H-1,2,4-triazol-3-one] | 5 | substantial binding inhibition | substantial binding inhibition | did not measurably bind | substantial binding inhibition | substantial binding inhibition | did not measurably bind | did neither impair the motor function | did neither impair the motor function | ameliorate the scratching behavior in a dose-dependent manner | Kp ([1]; 1 mg/kg): ≤ 0.3 |

Source: patent publication US20260258003A1, “SLACK-ACTIVATING COMPOUNDS AND THEIR MEDICAL USE” (Johann Wolfgang Goethe-Universität Frankfurt am Main, priority 2023, published 2026)
